Residues, ends and D or L forms follow the SMILES beside them. *: point of attachment. Cbz = O=C(OCc1ccccc1)*

Consider `CC(C)N1CCC(C(C#N)(c2ccccc2)c2ccccc2)C1` (stereo not given), for which the melting point lay in the range of 73 to 74 °C.

In turn, `COc1ccc(-n2nc(OC(C)C)cc2-c2ccc(OCCNS(C)(=O)=O)cc2)cn1` showed a melting point of 121 to 122 °C.

With `CSc1ccc(-c2cc(-c3nc4ccccc4c(=O)n3-c3cccc(C)c3)sc2N2CCOCC2)cc1`, the melting point lay in the range of 220 to 221 °C.

With `CCCc1c(O[C@@H]2CCC[C@H](Sc3ccc(C(=O)CCC(=O)O)cc3)C2)ccc(C(C)=O)c1O` (relative stereo), the melting point fell in the range of 101 to 103 °C.

On to `COc1ccc(CCc2c(Cl)cncc2Cl)c2cc(C#N)nn12`, for which the melting point lay within 208 to 209 °C.

With `N#Cc1cnc2cc(-c3cncc(CN4CCOCC4)c3)ccc2c1Nc1ccc(Oc2ccccc2)cc1`, the melting point was in the range of 185 to 187 °C.

Turning to `Nc1nc2ccccc2c2c1nc(-c1ccccc1)n2OCc1ccccc1`, the melting point lay in the range of 177 to 179 °C.

`COc1ccc(S(=O)(=O)N(CCC(C)C)CC(O)C(Cc2ccccc2)NC(=O)C(C)CS(C)(=O)=O)cc1` (stereo not given) returned a melting point of 125 to 129 °C.

For the molecule `CCNc1nc2ccccc2n(-c2ccc(Cl)cc2)c1=O`, the melting point was in the range of 192 to 195 °C.

For `COc1ccc(C(=O)N2CC(O)CC2C(=O)O)cc1` (stereo not given), the melting point was determined as 192 °C.

On to `O=S(=O)(c1ccc(Cl)cc1)C(c1cc(F)ccc1F)c1ccncc1Cl` (stereo not given), for which the melting point fell in the range of 160 to 161 °C.

With `CCOC(=O)N=C(OCC)c1ccccc1Cl`, the melting point lay in the range of 65 to 66 °C.

The molecule `O=C1CN(c2ccccc2)C(=O)N1C(=O)c1ccccc1Oc1ccccc1` showed a melting point of 127 to 128 °C.

In turn, `O=[N+]([O-])c1cccc2c1OC(CO)C2` (stereo not given) yielded a melting point of 63 to 65 °C.

`CNC(=O)CC(S)C(CC(C)C)C(=O)NC(Cc1ccc(OC)cc1)C(=O)NC` (stereo not given) gave a melting point of 175 to 190 °C.

As to `O=C(CC(NC(=O)COc1ccccc1)c1ccccc1)Nc1n[nH]c(=S)s1` (stereo not given), the melting point lay in the range of 225 to 226 °C.

On to `CN(C)CCc1ccc(N)cc1`, for which the melting point was found to be 40 °C.

As to `COC(=O)c1ccccc1NC(=O)C=C(c1ccc(Cl)cc1)c1ccc(Cl)cc1`, the melting point was 141 to 143 °C.

Molecule `CCOC(=O)C#CC(C)(C)OC(=O)Nc1ccc(-c2ncn(-c3ccc(OC(F)(F)F)cc3)n2)cc1` had a melting point of 183 to 188 °C.

The molecule `CCOCc1nc2c(N)nc3ccccc3c2n1CC1(C(N)=O)CC1` came in with a melting point of 230 to 232 °C.

Consider `COC(OC)C1(C)CCc2c(C)c(O)c(C)c(C)c2O1` (stereo not given), for which the melting point fell in the range of 102 to 106 °C.

As to `CCSCC12CCC(=O)C=C1CCC1C3CC(C)C(=O)C3(C)CCC12` (stereo not given), the melting point turned out to be 102 °C.

In the case of `O=C(O)Cc1cccc(C(=O)c2ccc(Cl)cc2)c1[N+](=O)[O-]`, the melting point was in the range of 164 to 165 °C.

In turn, `CCCN(c1ccccc1)S(=O)(=O)c1ccc(C(CC2CCCC2)C(=O)Nc2nc3ccc(OC)nc3s2)cc1` (stereo not given) showed a melting point of 83 to 85 °C.

Molecule `O=C(O)c1cccnc1NCc1ccc(Cl)cc1` registered a melting point of 240 to 242 °C.

As for `OC1(C2CC2)c2ccccc2OCc2ncccc21` (stereo not given), the melting point fell in the range of 210 to 212 °C.

In turn, `CCOC(=O)CC1CN=C(c2cc3c(C)ccc(N(C)S(=O)(=O)c4cccs4)c3[nH]2)S1` (stereo not given) showed a melting point of 109 to 110 °C.

`CCCc1nn(C)c2c(OCCOc3ccc(CC(OCC)C(=O)O)cc3)nc(C)nc12` (stereo not given) registered a melting point of 142 to 144 °C.

Molecule `COC(=O)CCc1cccc(-n2c(C)nn(-c3ccc(C#N)cc3)c2=O)c1` displayed a melting point of 134 to 137 °C.

In turn, `COc1nc(N)nc2c1CCO2` displayed a melting point of 172 to 177 °C.

With `COc1cc2[nH]c(S(=O)Cc3nccc(N4CCOCC4)c3F)nc2cc1C` (stereo not given), the melting point lay in the range of 185 to 186 °C.

In turn, `COc1ccc(S)c(-n2c(=O)[nH]cc(C(=O)O)c2=O)c1` displayed a melting point of 277 to 278 °C.

`N=C(N)NCCCC(NC(=O)C1CCCN1C(=O)C(CCCCNC(=O)OCc1ccccc1)NC(=O)CNC(=O)OCc1ccccc1)C(=O)O` (stereo not given) (Cbz-GK(Cbz)PR-OH; configuration not given here) registered a melting point of 175 °C.

For the molecule `C=CCc1c2c(cc3c(=O)cc(C(=O)O)oc13)CCCC2`, the melting point was 235 to 237 °C.

For the molecule `Cc1ccc(Sc2c(-c3ccc(S(C)(=O)=O)cc3)cnn(-c3cccc(Cl)c3)c2=O)cc1`, the melting point worked out at 178 °C.

`COC(=O)CS(=O)(=O)CCC=C1SC=CS1` gave a melting point of 133 to 135 °C.

The molecule `O=C1NCN(c2ccccc2)C12CCN(CCCn1c(=O)[nH]c3cc(Cl)c(Cl)cc31)CC2` registered a melting point of 275 °C.

In turn, `O=Cc1ccc2oc(-c3ccc4ccc(Cl)cc4n3)cc2c1` displayed a melting point of 235 to 236 °C.

For the molecule `CC(C)Oc1ccc2nc3ccc(C(=O)O)cn3c(=O)c2c1`, the melting point fell in the range of 256 to 267 °C.

The molecule `Cc1cc(O)cc(C)c1[N+](=O)[O-]` yielded a melting point of 106 to 108 °C.

As for `CC(C)[C@H]1C(=O)OCN1C(=O)OCc1ccccc1`, the melting point lay within 54 to 55 °C.

On to `COc1ccc(C2Sc3cc(Oc4ccc(Cl)cc4)ccc3NC(=O)C2O)cc1` (stereo not given), for which the melting point lay within 243 to 245 °C.

Consider `O=C(OCC1OC(n2cc(I)c(=O)[nH]c2=O)C(F)C1OC(=O)c1ccccc1)c1ccccc1` (stereo not given), for which the melting point turned out to be 197 °C.

The molecule `COc1ccccc1-c1c(NC(=O)OCc2ccccc2)oc(=O)c2ccccc12` showed a melting point of 144 to 146 °C.

Molecule `CC(C)CCSc1cccc(-c2nc(=O)c3ccccc3s2)n1` displayed a melting point of 103 to 105 °C.

For `Sc1nc2ccccc2n1CCCN1CCN(C(c2ccccc2)c2ccccc2)CC1`, the melting point is 182 °C.

Regarding `Cc1cccc(NC(=O)OC(C)(C)C)c1COc1cccn2c(C=O)c(C)nc12`, the melting point is 189 to 191 °C.

The molecule `CC(C)N1CCN(c2ccc(Nc3cc(-c4ccc5c(CCO)cn(C)c5c4)c(Cl)n4ccnc34)nc2)CC1` returned a melting point of 181 °C.

As for `COc1ccc(-c2ccc(C(=O)O)cc2)cc1-c1cccc([N+](=O)[O-])c1`, the melting point lay in the range of 270 to 274 °C.

In turn, `CC(=O)N(c1ccc(N2CCN(C)CC2)cc1)c1ncc2c(n1)S/C(=C/c1ccc(C(=O)O)cc1)C(=O)N2` gave a melting point of 326 to 330 °C.

As to `N#Cc1c(NC(=O)c2ccccc2)ccc2ccccc12`, the melting point is 205 °C.

As for `O=Cc1cn(Cc2cc(OCc3ccccc3)cc(OCc3ccccc3)c2)cc1-c1ccccc1`, the melting point was 117 to 118 °C.

On to `C#CCOc1cc(Cl)ccc1-n1c(=O)cc(C(F)(F)F)n(C)c1=O`, for which the melting point is 147 to 148 °C.

`CCOC(=O)Cc1csc(-c2cccc(Br)c2)n1` returned a melting point of 65 to 70 °C.

`O=C(NCCCc1ccncc1)N(CCC(F)(F)F)CCC12CC3CC(CC(C3)C1)C2` returned a melting point of 108 to 109 °C.

Take `COc1cc2nc(N3CCN(C(=O)C4CCCC4)CC3)nc(N)c2cc1OC`: the melting point is 256 to 259 °C.

For `Cc1cc(F)ccc1C=CC#N`, the melting point lay in the range of 86 to 87 °C.

For `C[C@@H](Cn1ncc2ccc(OC[C@@H]3CO3)c(C=O)c21)NC(=O)OCc1ccccc1`, the melting point is 90 to 92 °C.

The molecule `COc1cccc(OC/C=C(\C)C=O)c1` gave a melting point of 45 to 48 °C.

For the molecule `CC(=O)COc1c(-c2ccc(S(C)(=O)=O)cc2)cnn(-c2ccc(F)c(F)c2)c1=O`, the melting point is 169 to 170 °C.

`CCCCCCCCCCCCCCCc1cc(=O)c2c(O)cc(O)cc2o1` yielded a melting point of 108 °C.

Molecule `CCOC(=O)c1cnc2c(OC)cccc2c1Nc1cscc1C` showed a melting point of 162 to 164 °C.

Consider `C/C(=N\OC(=O)c1ccccn1)[C@H]1CC[C@H]2[C@@H]3CCC4=CC(=O)CC[C@]4(C)[C@H]3CC[C@]12C`, for which the melting point lay within 172 to 174 °C.

In the case of `O=c1nc(-c2ccc(O)cc2)oc2ccccc12`, the melting point lay in the range of 273 to 275 °C.

`COC(=O)c1ccc(N2C(=O)CCC2(CBr)COC(=O)c2ccccc2)c([N+](=O)[O-])c1` (stereo not given) yielded a melting point of 183 to 184 °C.

In turn, `COc1cc(C(C)NC(=O)OCC2c3ccccc3-c3ccccc32)c([N+](=O)[O-])cc1OCCCC(=O)O` (stereo not given) displayed a melting point of 200 to 201 °C.

In the case of `C[Si](C)(C)c1ccc(O)c(C(=O)C=C(O)c2ccc(C(=O)O)cc2)c1`, the melting point fell in the range of 207 to 209 °C.

In turn, `Cc1cccc(C)c1N1CCN(CCC2CN(C)C(=O)O2)CC1` (stereo not given) registered a melting point of 107 to 108 °C.

In turn, `COc1ccc(-c2[nH]nc3c2C(=O)c2c(NC(=O)CN4CCCCC4)cccc2-3)cc1` yielded a melting point of 291 °C.

`CCCC[C@H](NC(=O)[C@H](CCC)NC(=O)OCc1ccccc1)C(=O)CSCc1ccco1` showed a melting point of 95 to 96 °C.

`c1cc2c(s1)CCCCN2` showed a melting point of 55 to 57 °C.

For the molecule `NCC(O)C1=CC2(CC2)c2ccccc21` (stereo not given), the melting point was in the range of 133 to 134 °C.

As to `CCS(=O)(=O)c1cc2c(O)cccc2o1`, the melting point lay within 145 to 147 °C.

With `Cc1ccccc1-c1nc(-c2ccc(-c3ccccc3)cc2)n[nH]1`, the melting point was in the range of 165 to 167 °C.

Regarding `CC1=NC(=O)C(Cc2c[nH]c3ccccc23)N(O)C1=O` (stereo not given), the melting point was in the range of 166 to 168 °C.

`CCC(NC(=O)Cc1ccccc1)C(=NNC(N)=S)c1ccccc1` (stereo not given) registered a melting point of 121 to 124 °C.

The molecule `CC1C(C)(C)c2ccc(C#Cc3ccc(C=O)cc3)cc2C1(C)C` (stereo not given) gave a melting point of 106 to 107 °C.

For the molecule `COc1cc(I)c(CC(C)N2CCCC2)cc1OC` (stereo not given), the melting point fell in the range of 87 to 88 °C.

For `Nc1cc(-c2noc(-c3cnn4ccc(-c5ccc(C(F)(F)F)cc5)nc34)n2)ccn1`, the melting point came to 250 °C.

In turn, `C[C@@H](n1cnc2cc(-c3ccc(C#N)cc3)sc2c1=O)[C@](O)(Cn1cncn1)c1ccc(Cl)cc1Cl` displayed a melting point of 133 to 138 °C.

Regarding `O=C(ONC1CCCCC1)c1n[nH]c2c(=O)[nH]c3cc(Cl)ccc3c(=O)c12`, the melting point stood at 220 °C.

Molecule `C#CC(OC(c1ccccc1)(c1ccccc1)c1ccccc1)C(C)(C)CCCC` (stereo not given) returned a melting point of 75 to 77 °C.

`COc1ccc(C2SCc3c(sc(N)c3C(=O)c3cccc4ccccc34)S2)cc1` (stereo not given) had a melting point of 132 to 134 °C.

As for `CCCc1c(OCCCCCCc2cccc(OCCCCCCC(=O)O)c2CCC(=O)O)ccc2c1OCCC2=O`, the melting point fell in the range of 91 to 93 °C.

`COc1ccc2c(c1)CCC1CCNC(=O)C(CSC)=C21` (stereo not given) displayed a melting point of 182 to 184 °C.

As a reminder, the melting point is the temperature, or range, at which the solid turns liquid.

The values above are taken from a melting point compilation (Tetko et al.; mined from patent text by program, amines drawn as free bases though some values may be those of a salt).
